Data: patent publication US20020182240A1, “Cosmetics with hydrofluoroether (HFE)” (Daikin Industries, priority 1997, published 2002)

Columns and labels:
[1] = viscosity by Brookfield type viscometer or capillary tube viscometer; type: physicochemical
Procedure: The viscosity of the fluorine-containing oil is e.g. at least 5 mPa·s, particularly 10 to 10,000 mPa·s. The viscosity of the fluorine oil (and the HFE) was measured by a Brookfield type viscometer or a capillary tube viscometer.

the skin = assay: use of the cosmetic applied onto the skin (feeling in use, evaporation of the HFE, skin moisture); type: in vivo; conditions: after the cosmetic was applied onto the skin
Procedure: 50% by weight of a perfluoropolyether (FOMBLIN HC/04 manufactured by Audimont) (viscosity at 25° C.: 70 mPa·s) was mixed with 50% by weight of C4F9OCH3 (HFE A) (viscosity at 25° C.: 0.6 mPa·s) under stirring to give a solution. Thereafter, a very small amount of a perfume was added to give a non-aqueous lotion. This non-aqueous lotion was felt very smooth in use.
The powder ingredients in the formulation shown in Table 2 were mixed and ground with an atomizer and then transferred to a Henschel mixer. Then FOMBLIN HC/04 was added thereto, and the mixture was uniformly mixed. The mixture was dispersed in […] (HFE B) (viscosity at 25° C.: 0.7 mPa·s) to give a solvent dispersion-type foundation. This solvent dispersion-type foundation was felt very smooth in use.
The ingredients (1) to (8) in the formulation shown in Table 3 were mixed and ground in a colloid mill. After this mixture was heated at 80° C., the ingredients (9) to (13) which had been heated and mixed at 80° C. were added thereto and emulsified uniformly in a homomixer. The ingredient (14) was added to this emulsion, further emulsified uniformly in a homomixer, and cooled to room temperature to give a liquid foundation. This liquid foundation was felt very smooth in use. […]

Compound	viscosity at 25° C. [1] [mPa·s]	evaporation of the HFE (the skin)
CCOC(F)(F)C(F)(F)C(F)(F)C(F)(F)F [HFE B, C4F9OC2H5]	0.7	evaporated rapidly
FC(F)C(F)(F)OCC1(COCC(COC(F)(F)C(F)F)(COC(F)(F)C(F)F)COC(F)(F)C(F)F)COC1 [chemical formula B]	40	–
C4F9OCH3 [HFE A]	0.6	evaporated rapidly
